Test results published in publication PMC3591457, “Biodistribution and Elimination Study of Fluorine-18 Labeled N^ε-Carboxymethyl-Lysine following Intragastric and Intravenous Administration” (PLoS ONE, 2013).
Values joined by “and” are separate entries in the source; they are usually repeats but may differ in a detail not shown here. Identical values can stand only once.

Tests used:
RAW264.7 cells = assay: Cell uptake of ^18F-CML and native CML in RAW264.7 cells; format: cell-based; conditions: n=3, P<0.01, blocking with non-radioactive CML
Procedure: To compare the different bioactivities of CML and ^18F-CML, two cell lines were evaluated for their capacity to take up native CML and the fluorobenzoylated derivative ^18F-CML. RAW264.7 macrophages and HepG2 liver cells were cultured in DMEM/LOWGLUCOSE, supplemented with 10% fetal bovine serum (FBS), 4.0 mmol/L L-glutamine, 110 mg/L sodium pyruvate, 100 U/mL penicillin, and 100 mg/L streptomycin at 37°C and 5% CO2.
For ^18F-CML cell uptake studies, RAW264.7 cells and HepG2 cells were seeded into 24-well plates at a density of 4×10^5 cells per well. Radio-tracer ^18F-CML (0.5 µCi/well, 3 µmol/mL) was incubated in a 37°C water bath for 15, 30, 60, and 120 min. At each time point the cells were washed 3 times with phosphate-buffered saline (PBS). The supernatant, washing-up liquid (unbound activity) and the pellet (cell-bound activity) were transferred to new tubes. Triplicates of the counting tubes containing supernatant and cell pellet were counted individually using a gamma counter for 1 min. For the blocking experiment, the uptake was carried out in the presence of the non-radioactive CML(10 µmol/mL) and processed similarly as described above. The uptake (%) of radio-tracer into the cell was determined using a gamma counter according to the following equation: [drawing 1]
For CML cell uptake ratio studies, unaltered CML (10 µmol/mL) was added to RAW264.7 and HepG2 cell pellets individually. The total proteins of each cell line were initially extracted from the lysates of 4×10^5 cells. […] The supernatants were purified and detected usingby the method described by Drusch et al., which uses an RP-HPLC method with an ortho-phthaldialdehyde (OPA)-derivatisation and fluorescence detection suited for automation. The HPLC analysis method used a 250 mm×4.6 mm C18 column (GROM-SIL 100 ODS-0 AB, Herrenberg, Germany) and detected the fluorescence excitation at 340 nm and emission at 455 nm. The peak identification of CML was confirmed by the retention time and standard addition and was quantified using an external standard. The amount of CML was calculated and expressed as a percentage.

[1] = microPET imaging after intragastric administration; format: in vivo, ICR mice
Procedure: Male ICR mice weighing 18–20 g (7–8 wks old, n = 4) were kept fasting for 14 h […] and had free access to water before the experiments that followed. For the experiment, the mice were anesthetized and unconsciousness was maintained with a mixture of 1.5% isoflurane and nitrous oxide∶oxygen (7∶3). Approximately 3.0 MBq (80 µCi) of ^18F-labeled CML was administered via the gastrointestinal route. Five-minute static PET images were acquired at 15, 30, 60, 120 and 150 min post-injection.
Dynamic PET studies were performed using a dedicated microPET scanner for small animals. For imaging studies, the animals were under isoflurane anesthesia and then positioned and immobilized supine with their medial axis parallel to the axial axis of the scanner with the thorax and abdominal region (organs of interest: heart, liver, and kidneys) in the center of the field of view.
Approximately 5 min was needed to set the position of the animals after intragastric or intravenous administration of the drug solution containing ^18F-CML. Then, the emission data were acquired for 120 min. An attenuation map was created for each mouse by intravenously administering the residual ^18F-CML after acquisition of the emission data. […] The quantitative analyses of the hepatic and renal distributions of ^18F-CML were performed using ASIPro installed in the PET system.

[2] = Biodistribution after intravenous administration; format: in vivo, ICR mice; conditions: for Uptake in bladder, percentage of injected dose per whole tissue / Uptake in brain, percentage of injected dose per whole tissue / Uptake in heart, percentage of injected dose per whole tissue / Uptake in intestines, percentage of injected dose per whole tissue / Uptake in kidneys, percentage of injected dose per whole tissue / Uptake in liver, percentage of injected dose per whole tissue / Uptake in lungs, percentage of injected dose per whole tissue / Uptake in muscles, percentage of injected dose per whole tissue / Uptake in pancreas, percentage of injected dose per whole tissue / Uptake in stomach, percentage of injected dose per whole tissue: intravenous administration, n=3, mean ± SD
Procedure: The biodistribution of ^18F-CML was studied in eighteen young male ICR mice with a weight range of 18–20 g. Nine mice were used for intravenous administration and the other nine mice were used for intragastric administration.
For intravenous administration, ^18F-CML was injected into a lateral tail vein of the animals under light ether anesthesia. The injection volume (2–3 MBq; radiochemical purity 96%) was 0.1 mL. For intragastric administration, 1.5 MBq of ^18F-labeled CML was given via gastrointestinal tract tract.
The mice were sacrificed at 5, 60, and 120 min after administration of ^18F-CML (three mice at each time point). The animals were sacrificed by heart puncture under ether anaesthesia. The tissues and organs of interest were isolated and counted in a well-type γ counter. Additionally, 200 µL of blood was taken from the carotid artery. The distributions of ^18F-CML in different tissues and organs were calculated and expressed as the percent uptake of the injection dose per whole tissue (% ID).

[3] = intravenous, 60 min post-injection

## O=C(O)CNCCCCC(NC(=O)c1ccc([18F])cc1)C(=O)O (stereo not drawn) [^18F-CML]
RAW264.7 cells
  Uptake of radioactivity in untreated cells relative to unlabelled CML-treated (blocked) cells: 1.8 fold
[1]; first 15 min after administration via stomach tube
  Localization of radioactivity (PET): completely localized in the stomach
[1]; within 2 h after application via stomach tube
  Resorption of radioactivity from the small intestine (PET): not observed
[2]; intravenous
  Radioactivity in stomach, lungs, liver and intestines taken together, of the total injected dose: less than 10%
[2]; 5 min
  Uptake in bladder, percentage of injected dose per whole tissue: 26.50±1.70 %ID
  Uptake in brain, percentage of injected dose per whole tissue: 3.04±0.02 %ID
  Uptake in heart, percentage of injected dose per whole tissue: 11.15±0.05 %ID
  Uptake in intestines, percentage of injected dose per whole tissue: 1.02±0.05 %ID
  Uptake in kidneys, percentage of injected dose per whole tissue: 29.30 %ID and 29.30±2.05 %ID
  Uptake in liver, percentage of injected dose per whole tissue: 17.28±2.04 %ID
  Uptake in lungs, percentage of injected dose per whole tissue: 1.65±0.05 %ID
  Uptake in muscles, percentage of injected dose per whole tissue: 8.02±0.82 %ID
  Uptake in pancreas, percentage of injected dose per whole tissue: 0.9±0.04 %ID
  Uptake in stomach, percentage of injected dose per whole tissue: 0.35±0.02 %ID
[2]; 60 min
  Uptake in bladder, percentage of injected dose per whole tissue: 41.28±3.50 %ID
  Uptake in brain, percentage of injected dose per whole tissue: 0.38±0.01 %ID
  Uptake in heart, percentage of injected dose per whole tissue: 5.05±0.01 %ID
  Uptake in intestines, percentage of injected dose per whole tissue: 2.35±0.01 %ID
  Uptake in kidneys, percentage of injected dose per whole tissue: 35.6 %ID and 35.6±4.06 %ID
  Uptake in liver, percentage of injected dose per whole tissue: 9.72±1.62 %ID
  Uptake in lungs, percentage of injected dose per whole tissue: 1.12±0.02 %ID
  Uptake in muscles, percentage of injected dose per whole tissue: 5.17±1.12 %ID
  Uptake in pancreas, percentage of injected dose per whole tissue: 0.01±0.0 %ID
  Uptake in stomach, percentage of injected dose per whole tissue: 0.02±0.01 %ID
[2]; 120 min
  Uptake in bladder, percentage of injected dose per whole tissue: 72.30±5.20 %ID
  Uptake in brain, percentage of injected dose per whole tissue: 0.07±0.00 %ID
  Uptake in heart, percentage of injected dose per whole tissue: 1.03±0.00 %ID
  Uptake in intestines, percentage of injected dose per whole tissue: 0.5±0.00 %ID
  Uptake in kidneys, percentage of injected dose per whole tissue: 18.1 %ID and 18.1±2.65 %ID
  Uptake in liver, percentage of injected dose per whole tissue: 3.28±0.05 %ID
  Uptake in lungs, percentage of injected dose per whole tissue: 0.25±0.00 %ID
  Uptake in muscles, percentage of injected dose per whole tissue: 3.02±0.82 %ID
  Uptake in pancreas, percentage of injected dose per whole tissue: 0.00±0.02 %ID
  Uptake in stomach, percentage of injected dose per whole tissue: 0.01±0.00 %ID
[2]; [3]
  Injected dose found in the urine and stomach, lungs, liver and intestines: less than 50%
  Remaining radioactivity located in the circulating blood: approximately 8%
